Test results published in the Kinase Knowledgebase extract (Sharma et al. 2016).

These compounds were tested against MAPK14 (human) (UniProt Q16539) (assay: TNF-alpha Release Inhibition (LPS-stimulated PBMCs)). Settings: pbmc.
Sequence of MAPK14 (human) (Q16539 whole entry, looked up): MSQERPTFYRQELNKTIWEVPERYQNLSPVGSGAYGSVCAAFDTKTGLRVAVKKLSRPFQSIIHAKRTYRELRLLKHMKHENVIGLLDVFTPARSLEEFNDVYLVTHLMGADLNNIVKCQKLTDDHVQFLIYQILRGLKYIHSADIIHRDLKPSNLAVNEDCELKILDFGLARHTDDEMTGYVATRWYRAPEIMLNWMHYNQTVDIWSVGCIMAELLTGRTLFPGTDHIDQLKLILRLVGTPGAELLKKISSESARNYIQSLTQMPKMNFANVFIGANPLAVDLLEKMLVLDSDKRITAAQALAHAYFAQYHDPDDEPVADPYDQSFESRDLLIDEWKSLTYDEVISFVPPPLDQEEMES

| SMILES | IC50 [nM] |
| --- | --- |
| Nc1ccc2c(-c3ccncc3)c(-c3cccc(I)c3)[nH]c2n1 | 40 |
| COc1ccc2c(-c3ccncc3)c(-c3cccc(F)c3)[nH]c2c1 | 300 |
| Nc1ccc2c(-c3ccncc3)c(-c3ccc(F)cc3)[nH]c2c1 | 200 |
| Nc1cc(OCc2ccc(F)cc2)c2c(-c3ccncc3)c(-c3ccc(F)cc3)[nH]c2n1 | 2 |
| Fc1ccc(-c2[nH]c3ccccc3c2-c2ccncc2)cc1 | > 10000 |
| CN(C)c1ccc2c(-c3ccncc3)c(-c3ccc(F)cc3)[nH]c2n1 | 400 |
| CC(=O)Nc1ccc2c(-c3ccncc3)c(-c3ccc(F)cc3)[nH]c2n1 | 100 |
| COc1ccc2c(-c3ccncc3)c(-c3cccc(I)c3)[nH]c2c1 | 100 |
| COc1ccc2c(-c3ccncc3)c(-c3cccc(Cl)c3)[nH]c2c1 | 125 |
| CCCCOc1cc(O)nc2[nH]c(-c3ccc(F)cc3)c(-c3ccncc3)c12 | 15 |
| Nc1ccc2c(-c3ccncc3)c(-c3ccc(F)c(F)c3)[nH]c2n1 | 30 |
| Fc1ccc(-c2[nH]c3ncccc3c2-c2ccncc2)cc1 | 400 |
| CCCCOc1cc(OC)nc2[nH]c(-c3ccc(F)cc3)c(-c3ccncc3)c12 | 6 |
| Nc1ccc2c(-c3ccncc3)c(-c3cccc(Cl)c3)[nH]c2n1 | 9 |
| Fc1ccc(-c2[nH]c3nc(NCc4ccccc4)ccc3c2-c2ccncc2)cc1 | 300 |
| COc1ccc2c(-c3ccncc3)c(-c3ccc(F)cc3)[nH]c2c1 | 400 |
| COc1ccc2c(-c3ccncc3)c(-c3ccc(I)cc3)[nH]c2c1 | 6500 |
| Oc1ccc2c(-c3ccncc3)c(-c3ccc(F)cc3)[nH]c2n1 | > 10000 |
| COc1ccc2c(-c3ccncc3)c(-c3ccc(F)cc3)[nH]c2n1 | 200 |
| CCOc1ccc(-c2[nH]c3nc(N)ccc3c2-c2ccncc2)cc1Cl | 60 |
